The text below walks through data of ChEMBL document CHEMBL5380860, “Design, Synthesis, and Antitumor Activity of Potent and Selective EGFR L858R/T790M Inhibitors and Identification of a Combination Therapy to Overcome Acquired Resistance in Models of Non-small-cell Lung Cancer” (J Med Chem, 2023).

The species entered for series [1] is Mus musculus. The settings on record: BALB/c, dose 10.0 mg/kg/day, route po.
Series [2] is filed under the species Mus musculus. As to conditions: BALB/c, dose 10.0 mg/kg/day, route po. This is another data set of the same source.
The subject of series [3] is NCI-H1975. The series can be described thus: Antiproliferative activity against human NCI-H1975 cells harboring EGFR L858R/T790M mutant assessed as reduction in cell viability measured after 72 hrs by MTT assay. It counts as functional, cell-based. As to conditions: NCI-H1975, 72 h.
Series [4] concerns Epidermal growth factor receptor (Homo sapiens), P00533 [L858R,T790M]. The series can be described thus: Covalent binding affinity to EGFR L858R/T790M mutant (unknown origin) assessed as enzyme-compound complex formation at protein to compound concentration ratio of 1:4 incubated for 1 hr by LC-MS analysis.
Series [5] has the same test system. Kind of series: Covalent binding affinity to EGFR L858R/T790M mutant (unknown origin) assessed as covalent adduct formation at Cys797 residue at protein to compound concentration ratio of 1:4 incubated for 1 hr and measured following enzymatic hydrolysis by LC-MS analysis.
Series [6] deals with wild type EGFR (Homo sapiens, UniProt P00533). Kind of series: Inhibition of human wild type partial length EGFR (R669 to V1011 residues) expressed in bacterial expression system assessed as residual activity at 1 uM by KINOMEscan analysis. The format is toxicity. The settings on record: read-out: Activity.
The target in series [7] is T1, Epidermal growth factor receptor (Homo sapiens, UniProt P00533). The series can be described thus: Inhibition of human wild type partial length EGFR (R669 to V1011 residues) expressed in bacterial expression system by KINOMEscan analysis. The format is toxicity.
The target in series [8] is STE20-like serine/threonine-protein kinase (Homo sapiens, UniProt Q9H2G2). The series can be described thus: Inhibition of human wild type partial length SLK (S14 to A307 residues) expressed in bacterial expression system by KINOMEscan analysis.
Series [9] concerns the target T1, Epidermal growth factor receptor. Kind of series: Inhibition of wild type EGFR in human A549 cells assessed as inhibition of EGF-induced Akt phosphorylation at Ser473 residue at 10 uM pretreated with compound for 4 hrs followed by incubation with EGF for 10 mins by western blot analysis. The settings on record: a549, 4.167 h, time 250 min. The format is toxicity, cell-based.

The target is the same in series [10]. The series can be described thus: Inhibition of wild type EGFR in human A-431 cells assessed as inhibition of EGF-induced ERK1/2 phosphorylation at 0.1 to 10 uM pretreated with compound for 4 hrs followed by incubation with EGF for 10 mins by western blot analysis. The format is toxicity, cell-based. As to conditions: a-431, 4.167 h, dose 0.1-10 µM, time 250 min.

The subject of series [11] is NCI-H1975. Kind of series: Induction of apoptosis in human NCI-H1975 cells assessed as induction of caspase-3 cleavage pretreated with compound for 4 hrs followed by incubation with EGF for 10 mins by western blot analysis. It counts as functional, cell-based. The settings on record: dose 0.1-10 µM, time 250.0 min.
Series [12] has as its system A-431. The series can be described thus: Induction of apoptosis in human A-431 cells assessed as increase in caspase-3/7 activity at 0.1 to 10 uM incubated for 24 hrs by Caspase-Glo reagent based luminescence analysis. The settings on record: a-431, 24 h, dose 0.1-10 µM. The format is toxicity, cell-based.
Series [13] concerns HCC827. Kind of series: Inhibition of clonogenicity in human HCC827 cells assessed as inhibition of colony formation incubated for 14 days by crystal violet staining based analysis. It counts as functional, cell-based. As to conditions: dose 0.1-10 µM, time 14.0 day.
Series [14] has as its system A549. Kind of series: Inhibition of clonogenicity in human A549 cells assessed as inhibition of colony formation at 0.1 to 10 uM incubated for 14 days by crystal violet staining based analysis. The format is toxicity, cell-based. As to conditions: a549, 336 h, dose 0.1-10 µM, time 14 day.
Series [15] deals with NCI-H1975. Kind of series: Inhibition of cell migration in human NCI-H1975 cells at 0.1 uM incubated for 48 hrs by scratch wound healing assay. The format is functional, cell-based.
The test system of series [16] is NCI-H1975. The series can be described thus: Inhibition of cell migration in human NCI-H1975 cells incubated for 48 hrs by scratch wound healing assay. It counts as functional, cell-based. As to conditions: dose 0.1-10 µM.
The nature of series [17]: Half life in Sprague-Dawley rat at 1 mg/kg, iv by LC-MS analysis. It counts as ADME, organism-based. The settings on record: in vivo.
Series [18] can be described thus: AUC (0 to t) in Sprague-Dawley rat at 1 mg/kg, iv by LC-MS analysis. The format is ADME, organism-based. On the set-up: dose 1 mg/kg, route iv. The settings on record: in vivo.
Series [19] in a line: Clearance in Sprague-Dawley rat at 1 mg/kg, iv by LC-MS analysis. The format is ADME, organism-based. As to conditions: in vivo.
Series [20] can be described thus: Toxicity in BALB/c mouse xenografted with human NCI-H1975 cells assessed as effect on body weight at 5 to 20 mg/kg/day, ip. It counts as organism-based. As to conditions: in vivo, dose 5-20 mg/kg/day.
Series [21] relates to NCI-H1975. Kind of series: Antitumor activity against human NCI-H1975 cells xenografted in BALB/c mouse assessed as decrease in Ki-67 expression in tumor at 5 to 20 mg/kg/day, ip by immunohistochemistry. It counts as functional, organism-based. The settings on record: dose 5-20 mg/kg/day.
Series [22] has as its system Mus musculus. Kind of series: In vivo inhibition of EGFR L858R/T790M mutant in NCI-H1975 cells xenografted BALB/c mouse assessed as inhibition of AKT phosphorylation at Ser473 residue at 5 to 20 mg/kg/day, ip in tumor by immunohistochemistry. As to conditions: dose 5-20 mg/kg/day. It counts as functional, organism-based.
In series [23] the test system is NCI-H1975. Kind of series: Synergistic antiproliferative activity against N-(3-((6-Fluoro-2-((4-(4-methylpiperazin-1-yl)phenyl)amino)quinazolin-4-yl)amino)phenyl)acrylamide-resistant human NCI-H1975 cells assessed as combination index measured after 72 hrs in presence of ACK1 inhibitor, AIM100 by MTT assay. It counts as functional.
Series [24] relates to NCI-H1975. Kind of series: Antitumor activity against N-(3-((6-Fluoro-2-((4-(4-methylpiperazin-1-yl)phenyl)amino)quinazolin-4-yl)amino)phenyl)acrylamide-resistant human NCI-H1975 cells xenografted in BALB/c mouse assessed as inhibition of tumor volume at 20 mg/kg/day, ip in presence of ACK1 inhibitor, dasatinib. It counts as functional, organism-based.
Series [25] is described as follows: Toxicity in BALB/c mouse xenografted with N-(3-((6-Fluoro-2-((4-(4-methylpiperazin-1-yl)phenyl)amino)quinazolin-4-yl)amino)phenyl)acrylamide-resistant human NCI-H1975 cells assessed as changes in spleen morphological changes at 20 mg/kg/day, ip in presence of ACK1 inhibitor, dasatinib by hematoxylin-eosin staining based analysis. It counts as organism-based. The settings on record: in vivo.

Series [26] is described as follows: Toxicity in BALB/c mouse xenografted with N-(3-((6-Fluoro-2-((4-(4-methylpiperazin-1-yl)phenyl)amino)quinazolin-4-yl)amino)phenyl)acrylamide-resistant human NCI-H1975 cells assessed as changes in lung morphological changes at 20 mg/kg/day, ip in presence of ACK1 inhibitor, dasatinib by hematoxylin-eosin staining based analysis. The format is organism-based. As to conditions: in vivo.

Series [27] relates to Mus musculus. The series can be described thus: In vivo inhibition of EGFR L858R/T790M mutant in N-(3-((6-Fluoro-2-((4-(4-methylpiperazin-1-yl)phenyl)amino)quinazolin-4-yl)amino)phenyl)acrylamide-resistant human NCI-H1975 cells xenografted BALB/c mouse assessed as inhibition of AKT phosphorylation at Ser473 residue in tumor at 20 mg/kg/day, ip in presence of ACK1 inhibitor, dasatinib by immunoblot analysis. It counts as functional, organism-based.

The subject of series [28] is NCI-H1975. The series can be described thus: Antitumor activity against N-(3-((6-Fluoro-2-((4-(4-methylpiperazin-1-yl)phenyl)amino)quinazolin-4-yl)amino)phenyl)acrylamide-resistant human NCI-H1975 cells xenografted in BALB/c mouse assessed as […] in TUNEL-positive cells in tumor at 20 mg/kg/day, ip in presence of ACK1 inhibitor, dasatinib by TUNEL assay. The format is functional, organism-based.

SMILES strings stand for the structures. Calls of active or inactive are those of the source. The calls are words filed in the database; no cut-off is given here.

STE20-like serine/threonine-protein kinase, sequence (Q9H2G2 whole entry, the tested form may be a part): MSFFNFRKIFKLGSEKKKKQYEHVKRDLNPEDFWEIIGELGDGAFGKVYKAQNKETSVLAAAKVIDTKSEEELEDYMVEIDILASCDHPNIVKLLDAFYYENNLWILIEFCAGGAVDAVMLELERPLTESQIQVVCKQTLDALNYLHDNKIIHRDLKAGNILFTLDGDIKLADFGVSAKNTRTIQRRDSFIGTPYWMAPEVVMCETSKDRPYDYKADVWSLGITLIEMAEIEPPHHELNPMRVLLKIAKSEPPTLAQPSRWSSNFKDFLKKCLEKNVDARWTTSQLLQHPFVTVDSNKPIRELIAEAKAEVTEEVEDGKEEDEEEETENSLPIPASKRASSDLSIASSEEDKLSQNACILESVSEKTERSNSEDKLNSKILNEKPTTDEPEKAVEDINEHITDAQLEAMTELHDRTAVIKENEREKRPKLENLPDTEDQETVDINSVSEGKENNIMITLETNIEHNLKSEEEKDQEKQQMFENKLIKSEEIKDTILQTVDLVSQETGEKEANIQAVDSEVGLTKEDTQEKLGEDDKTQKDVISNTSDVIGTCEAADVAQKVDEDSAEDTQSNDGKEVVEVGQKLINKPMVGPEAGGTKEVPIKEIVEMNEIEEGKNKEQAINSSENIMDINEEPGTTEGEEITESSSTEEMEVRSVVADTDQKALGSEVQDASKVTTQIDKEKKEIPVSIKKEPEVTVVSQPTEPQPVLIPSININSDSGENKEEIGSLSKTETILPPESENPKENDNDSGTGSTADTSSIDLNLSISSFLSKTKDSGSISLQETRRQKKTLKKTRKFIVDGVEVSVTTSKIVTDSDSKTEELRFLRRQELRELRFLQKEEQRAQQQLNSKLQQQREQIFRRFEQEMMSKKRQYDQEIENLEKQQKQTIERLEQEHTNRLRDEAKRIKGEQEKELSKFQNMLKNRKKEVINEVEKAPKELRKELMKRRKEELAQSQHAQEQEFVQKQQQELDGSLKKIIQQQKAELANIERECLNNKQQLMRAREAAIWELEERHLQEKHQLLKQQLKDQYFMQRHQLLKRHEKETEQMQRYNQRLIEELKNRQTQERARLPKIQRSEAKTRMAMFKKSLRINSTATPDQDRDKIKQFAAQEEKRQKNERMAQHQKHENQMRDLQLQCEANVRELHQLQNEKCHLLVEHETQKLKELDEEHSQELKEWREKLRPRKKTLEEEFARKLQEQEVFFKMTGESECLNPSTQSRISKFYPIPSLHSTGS

In the case of `C=CC(=O)Nc1cc(Nc2nccc(-c3cn(C)c4ccccc34)n2)c(OC)cc1N(C)CCN(C)C` [OSIMERTINIB], the inhibition result in series [1] and in series [2] was “Active” in each case.

For `C=CC(=O)Nc1cccc(Nc2nc(Nc3ccc(N4CCN(C)CC4)cc3)nc3ccc(F)cc23)c1`, the IC50 in series [3] amounted to 19 nM; in [7], 1290 nM; in series [8], 892 nM. In addition, the Activity entry in [4], in series [5], in [21], in [24] and in [28] was “Active” in each case. In addition, in series [6], the activity at 1 µM amounted to 96%. Further, the “inhibition (INH)” value in series [9] and in series [10] was “Not Active” in each case. For the same molecule, the Activity entry in series [11] is “Dose-Dependent Effect”; in [12], “Non-Toxic”; in series [14], “Non-Toxic”; in series [20], “Non-Toxic”; in series [25], “Non-Toxic”; in series [26], “Non-Toxic”. The inhibition result in [13] and in [16] was “Dose-Dependent Effect” throughout. The inhibition entry in series [15], in series [22] and in series [27] was “Active” each time. In [17], this molecule gave a half-life of 1.76 h. Moreover, the AUC(0-t) in series [18] was found to be 1040 ng·h/mL. Moreover, the clearance in [19] amounted to 16.1 mL/min/kg. The CI in series [23] was below 2.
